Reference: PubChem BioAssay (NCI)
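Step 1: Grow cells in 96-well plates. Step 2: Expose to compound for 48 hours at 5 concentrations. Step 3: Interpolate endpoints linearly; if unreached, use highest concentration. Here, GI50 denotes the concentration required for 50% inhibition of growth. TGI marks complete inhibition of growth.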

Key:
Assay in all cases: inhibition of tumour cell growth, NCI panel, 48 h
ACHN renal = tested on: ACHN renal
M14 melanoma = tested on: M14 melanoma
MCF7 breast = tested on: MCF7 breast
DU-145 prostate = tested on: DU-145 prostate
EKVX NSCLC = tested on: EKVX NSCLC
A549 NSCLC = tested on: A549 NSCLC
SK-OV-3 ovarian = tested on: SK-OV-3 ovarian
T-47D breast = tested on: T-47D breast
OVCAR-5 ovarian = tested on: OVCAR-5 ovarian
786-0 renal = tested on: 786-0 renal
PC-3 prostate = tested on: PC-3 prostate
HT29 colon = tested on: HT29 colon
OVCAR-8 ovarian = tested on: OVCAR-8 ovarian
OVCAR-4 ovarian = tested on: OVCAR-4 ovarian
HCT-116 colon = tested on: HCT-116 colon
CAKI-1 renal = tested on: CAKI-1 renal
UACC-62 melanoma = tested on: UACC-62 melanoma
SK-MEL-28 melanoma = tested on: SK-MEL-28 melanoma
BT-549 breast = tested on: BT-549 breast
LOX IMVI melanoma = tested on: LOX IMVI melanoma
HS 578T breast = tested on: HS 578T breast
SF-268 CNS = tested on: SF-268 CNS
KM12 colon = tested on: KM12 colon
IGROV1 ovarian = tested on: IGROV1 ovarian
SK-MEL-2 melanoma = tested on: SK-MEL-2 melanoma
HCT-15 colon = tested on: HCT-15 colon
MDA-MB-435 = tested on: MDA-MB-435
NCI-H226 lung = tested on: NCI-H226 lung
HL-60(TB) leukemia = tested on: HL-60(TB) leukemia
HCC-2998 colon = tested on: HCC-2998 colon
SR leukemia = tested on: SR leukemia
UACC-257 melanoma = tested on: UACC-257 melanoma
HOP-92 NSCLC = tested on: HOP-92 NSCLC
NCI-H522 lung = tested on: NCI-H522 lung
MOLT-4 leukemia = tested on: MOLT-4 leukemia
SK-MEL-5 melanoma = tested on: SK-MEL-5 melanoma
SF-295 CNS = tested on: SF-295 CNS
MDA-MB-231 breast = tested on: MDA-MB-231 breast
MALME-3M melanoma = tested on: MALME-3M melanoma
TK-10 renal = tested on: TK-10 renal
SW-620 colon = tested on: SW-620 colon
SF-539 CNS = tested on: SF-539 CNS
COLO 205 colon = tested on: COLO 205 colon
U251 CNS = tested on: U251 CNS
A498 renal = tested on: A498 renal
UO-31 renal = tested on: UO-31 renal
SNB-19 CNS = tested on: SNB-19 CNS
NCI/ADR-RES ovarian = tested on: NCI/ADR-RES ovarian
OVCAR-3 ovarian = tested on: OVCAR-3 ovarian
NCI-H460 lung = tested on: NCI-H460 lung
RXF 393 renal = tested on: RXF 393 renal
SN12C renal = tested on: SN12C renal
NCI-H23 lung = tested on: NCI-H23 lung
K-562 leukemia = tested on: K-562 leukemia
RPMI-8226 leukemia = tested on: RPMI-8226 leukemia
CCRF-CEM leukemia = tested on: CCRF-CEM leukemia
HOP-62 NSCLC = tested on: HOP-62 NSCLC
SNB-75 CNS = tested on: SNB-75 CNS

C=C(C)[C@@H]1CC[C@]2(COC(=O)c3ccccc3C(=O)O)CC[C@]3(C)[C@H](CC[C@@H]4[C@@]5(C)CC[C@H](OC(=O)c6ccccc6C(=O)O)C(C)(C)[C@@H]5CC[C@]43C)[C@@H]12 was tested, and the GI50 (ACHN renal) was 28 µM, the TGI (ACHN renal) was over 100 µM and the GI50 (M14 melanoma) was 44.9 µM. It also gave a TGI (M14 melanoma) of over 100 µM, a GI50 (MCF7 breast) of over 100 µM and a TGI (MCF7 breast) of over 100 µM. The GI50 (DU-145 prostate) was 32.8 µM, the TGI (DU-145 prostate) was over 100 µM and the GI50 (EKVX NSCLC) was 37.4 µM. It also gave a TGI (EKVX NSCLC) of over 100 µM, a GI50 (A549 NSCLC) of 29.8 µM and a TGI (A549 NSCLC) of over 100 µM. It also gave a GI50 (SK-OV-3 ovarian) of 35.8 µM, a TGI (SK-OV-3 ovarian) of over 100 µM and a GI50 (T-47D breast) of 19.7 µM. For the same molecule, the TGI (T-47D breast) was 75.8 µM, the GI50 (OVCAR-5 ovarian) was over 100 µM and the TGI (OVCAR-5 ovarian) was over 100 µM. It also gave a GI50 (786-0 renal) of 31.6 µM, a TGI (786-0 renal) of over 100 µM and a GI50 (PC-3 prostate) of 34.6 µM. For the same molecule, the TGI (PC-3 prostate) was over 100 µM, the GI50 (HT29 colon) was 46 µM and the TGI (HT29 colon) was over 100 µM. For the same molecule, the GI50 (OVCAR-8 ovarian) was 42.6 µM, the TGI (OVCAR-8 ovarian) was over 100 µM and the GI50 (OVCAR-4 ovarian) was 36.7 µM. It also gave a TGI (OVCAR-4 ovarian) of over 100 µM, a GI50 (HCT-116 colon) of 33.1 µM and a TGI (HCT-116 colon) of over 100 µM. For the same molecule, the GI50 (CAKI-1 renal) was 18.6 µM, the TGI (CAKI-1 renal) was 85.2 µM and the GI50 (UACC-62 melanoma) was 16.6 µM. It also gave a TGI (UACC-62 melanoma) of over 100 µM, a GI50 (SK-MEL-28 melanoma) of 95.5 µM and a TGI (SK-MEL-28 melanoma) of over 100 µM. It also gave a GI50 (BT-549 breast) of 33.3 µM, a TGI (BT-549 breast) of over 100 µM and a GI50 (LOX IMVI melanoma) of 24.6 µM. The TGI (LOX IMVI melanoma) was over 100 µM, the GI50 (HS 578T breast) was 26.4 µM and the TGI (HS 578T breast) was over 100 µM. It also gave a GI50 (SF-268 CNS) of 26.6 µM, a TGI (SF-268 CNS) of over 100 µM and a GI50 (KM12 colon) of 8.47 µM. The TGI (KM12 colon) was over 100 µM, the GI50 (IGROV1 ovarian) was 33.2 µM and the TGI (IGROV1 ovarian) was over 100 µM. For the same molecule, the GI50 (SK-MEL-2 melanoma) was 20.6 µM, the TGI (SK-MEL-2 melanoma) was 54.1 µM and the GI50 (HCT-15 colon) was 31.3 µM. The TGI (HCT-15 colon) was over 100 µM, the GI50 (MDA-MB-435) was 34.6 µM and the TGI (MDA-MB-435) was over 100 µM. It also gave a GI50 (NCI-H226 lung) of 32 µM, a TGI (NCI-H226 lung) of over 100 µM and a GI50 (HL-60(TB) leukemia) of over 100 µM. The TGI (HL-60(TB) leukemia) was over 100 µM, the GI50 (HCC-2998 colon) was 74.3 µM and the TGI (HCC-2998 colon) was over 100 µM. It also gave a GI50 (SR leukemia) of 27.3 µM, a TGI (SR leukemia) of 74.1 µM and a GI50 (UACC-257 melanoma) of 71.3 µM. For the same molecule, the TGI (UACC-257 melanoma) was over 100 µM, the GI50 (HOP-92 NSCLC) was 19.6 µM and the TGI (HOP-92 NSCLC) was 64.5 µM. The GI50 (NCI-H522 lung) was 22.8 µM, the TGI (NCI-H522 lung) was 96.9 µM and the GI50 (MOLT-4 leukemia) was 56.7 µM. For the same molecule, the TGI (MOLT-4 leukemia) was over 100 µM, the GI50 (SK-MEL-5 melanoma) was 99.2 µM and the TGI (SK-MEL-5 melanoma) was over 100 µM. It also gave a GI50 (SF-295 CNS) of 24.1 µM, a TGI (SF-295 CNS) of over 100 µM and a GI50 (MDA-MB-231 breast) of 25 µM. It also gave a TGI (MDA-MB-231 breast) of 69.3 µM, a GI50 (MALME-3M melanoma) of 60.8 µM and a TGI (MALME-3M melanoma) of over 100 µM. The GI50 (TK-10 renal) was 24.8 µM, the TGI (TK-10 renal) was 63.3 µM and the GI50 (SW-620 colon) was 97.7 µM. It also gave a TGI (SW-620 colon) of over 100 µM, a GI50 (SF-539 CNS) of 36.3 µM and a TGI (SF-539 CNS) of over 100 µM. It also gave a GI50 (COLO 205 colon) of over 100 µM, a TGI (COLO 205 colon) of over 100 µM and a GI50 (U251 CNS) of 23.1 µM. For the same molecule, the TGI (U251 CNS) was 77.7 µM, the GI50 (A498 renal) was 40.6 µM and the TGI (A498 renal) was over 100 µM. The GI50 (UO-31 renal) was 32.1 µM, the TGI (UO-31 renal) was over 100 µM and the GI50 (SNB-19 CNS) was 23.2 µM. It also gave a TGI (SNB-19 CNS) of over 100 µM, a GI50 (NCI/ADR-RES ovarian) of 67.6 µM and a TGI (NCI/ADR-RES ovarian) of over 100 µM. For the same molecule, the GI50 (OVCAR-3 ovarian) was 17.5 µM, the TGI (OVCAR-3 ovarian) was 49.3 µM and the GI50 (NCI-H460 lung) was 85.1 µM. The TGI (NCI-H460 lung) was over 100 µM, the GI50 (RXF 393 renal) was 22.6 µM and the TGI (RXF 393 renal) was 77.3 µM. The GI50 (SN12C renal) was 60.8 µM, the TGI (SN12C renal) was over 100 µM and the GI50 (NCI-H23 lung) was 42.7 µM. For the same molecule, the TGI (NCI-H23 lung) was over 100 µM, the GI50 (K-562 leukemia) was 31.7 µM and the TGI (K-562 leukemia) was over 100 µM. The GI50 (RPMI-8226 leukemia) was 14.8 µM, the TGI (RPMI-8226 leukemia) was over 100 µM and the GI50 (CCRF-CEM leukemia) was 30.5 µM. For the same molecule, the TGI (CCRF-CEM leukemia) was over 100 µM, the GI50 (HOP-62 NSCLC) was 21.8 µM and the TGI (HOP-62 NSCLC) was 54.2 µM. It also gave a GI50 (SNB-75 CNS) of 15.4 µM and a TGI (SNB-75 CNS) of 36 µM.
